Source: patent publication US20120283208A1, “ANTIBACTERIAL AMINOGLYCOSIDE ANALOGS” (Achaogen, Inc., priority 2009, published 2012)
Converted amounts (≈) assume the structure as drawn.

Legend:
E. coli ATCC 25922 = assay: MIC broth microdilution, AECO001; format: cell-based; details: Escherichia coli; AECO001 is ATCC25922; Mueller Hinton Broth, 35 C, 20 hours
Procedure: (§1) Minimum inhibitory concentrations (MIC) were determined by reference Clinical and Laboratory Standards Institute (CLSI) broth microdilution methods per M7-A7 [2006]. Quality control ranges utilizing E. coli ATCC 25922, P. aeruginosa ATCC 27853 and S. aureus ATCC 29213, and interpretive criteria for comparator agents were as published in CLSI M100-S17 [2007]. Briefly, serial two-fold dilutions of the test compounds were prepared at 2× concentration in Mueller Hinton Broth. The compound dilutions were mixed in 96-well assay plates in a 1:1 ratio with bacterial inoculum. The inoculum was prepared by suspension of a colony from an agar plate that was prepared the previous day. Bacteria were suspended in sterile saline and added to each assay plate to obtain a final concentration of 5×10^5 CFU/mL. The plates were incubated at 35 C for 20 hours in ambient air.

P. aeruginosa ATCC 27853 = assay: MIC broth microdilution, APAE001; format: cell-based; details: Pseudomonas aeruginosa; APAE001 is ATCC27853; Mueller Hinton Broth, 35 C, 20 hours
Procedure: as §1

MIC (E. coli ATCC 25922) | MIC (P. aeruginosa ATCC 27853) | Compound
1 to 16 µg/mL (≈ 1.35 to 21.6 µM) | ≤ 1 µg/mL | NC[C@@H]1O[C@H](O[C@H]2[C@@H](O)[C@H](O[C@@H]3[C@@H](O)[C@H](NC(=O)C4(O)CNC4)C[C@H](N)[C@H]3O[C@H]3O[C@H](CNCCO)[C@@H](O)C[C@H]3N)O[C@@H]2CO)[C@H](N)[C@@H](O)[C@@H]1O [1/16]
1 to 16 µg/mL (≈ 1.32 to 21.2 µM) | ≤ 1 µg/mL | NC[C@@H]1O[C@H](O[C@H]2[C@@H](O)[C@H](O[C@@H]3[C@@H](O)[C@H](NC(=O)[C@]4(O)C[C@H](N)C4)C[C@H](N)[C@H]3O[C@H]3O[C@H](CNCCO)[C@@H](O)C[C@H]3N)O[C@@H]2CO)[C@H](N)[C@@H](O)[C@@H]1O [2/9]
1 to 16 µg/mL (≈ 1.32 to 21.1 µM) | ≤ 1 µg/mL | NC[C@@H](O)[C@H](O)C(=O)N[C@@H]1C[C@H](N)[C@@H](O[C@H]2O[C@H](CNCCO)[C@@H](O)C[C@H]2N)[C@H](O[C@@H]2O[C@H](CO)[C@@H](O[C@H]3O[C@@H](CN)[C@@H](O)[C@H](O)[C@H]3N)[C@H]2O)[C@H]1O [3/3]
1 to 16 µg/mL (≈ 1.32 to 21.1 µM) | ≤ 1 µg/mL | NC[C@@H]1O[C@H](O[C@H]2[C@@H](O)[C@H](O[C@@H]3[C@@H](O)[C@H](NC(=O)[C@@H](O)[C@@H](O)CN)C[C@H](N)[C@H]3O[C@H]3O[C@H](CNCCO)[C@@H](O)C[C@H]3N)O[C@@H]2CO)[C@H](N)[C@@H](O)[C@@H]1O [4/3]
1 to 16 µg/mL (≈ 1.31 to 21 µM) | ≤ 1 µg/mL | NC[C@@H](F)[C@H](O)C(=O)N[C@@H]1C[C@H](N)[C@@H](O[C@H]2O[C@H](CNCCO)[C@@H](O)C[C@H]2N)[C@H](O[C@@H]2O[C@H](CO)[C@@H](O[C@H]3O[C@@H](CN)[C@@H](O)[C@H](O)[C@H]3N)[C@H]2O)[C@H]1O [5/3]
1 to 16 µg/mL (≈ 1.28 to 20.5 µM) | 1 to 16 µg/mL (≈ 1.28 to 20.5 µM) | NC[C@@H]1O[C@H](O[C@H]2[C@@H](O)[C@H](O[C@@H]3[C@@H](O)[C@H](NC(=O)[C@@H](O)C(F)(F)CN)C[C@H](N)[C@H]3O[C@H]3O[C@H](CNCCO)[C@@H](O)C[C@H]3N)O[C@@H]2CO)[C@H](N)[C@@H](O)[C@@H]1O [6/3]
